The values that follow come from PMC7910576, “Marine furanocembranoids-inspired macrocycles enabled by Pd-catalyzed unactivated C(sp^3)-H olefination mediated by donor/donor carbenes” (Nature Communications, 2021).

What is called IC50 is the point on the concentration scale where inhibition reaches its midpoint. By CC50 is commonly meant the concentration that lowers cell viability or growth by half.

One data set concerns TNF-α. Kind of data set: LPS-induced TNF-α production in RAW264.7 macrophages (ELISA). As to conditions: Mus musculus, LPS 5 μg/mL, 24 h. Type of data set: cell-based. On the procedure: (§1) RAW264.7 cell, a murine macrophage cell line, was purchased from American Type Culture Collection (ATCC, Manassas, VA, USA). Cells were grown in Dulbecco’s Modified Eagle Media (DMEM) containing 10% fetal bovine serum, 2 mM L-glutamine, 100 U/mL penicillin, and 100 μg/mL streptomycin and were maintained at 37 °C in a humidified incubator of 5% CO2.
(§2) RAW264.7 cells (1 × 10^5/well) were seeded into 96-well plates in triplicate and were treated with DMEM media only or 5 μg/mL of LPS or with indicated concentrations of compounds for 24 h. Supernatants were collected and then quantified with the mouse TNF-α, IL-6, and IL-1β ELISA kits following the manufacturer’s instructions.

Data set [1] in a line: Cell viability assay (MTT) in RAW264.7 cells. Type of data set: cell-based, mouse. As to conditions: mouse, RAW264.7 macrophage cells; RAW264.7 cells, 24 h, MTT; read-out: Cytotoxicity CC50. On the procedure:
as §1
(§3) RAW264.7 cells (1 × 10^5/well) were seeded into 96-well plates in triplicate and were treated with DMEM media or indicated concentrations of compounds for 24 h. MTT solution was added to each well at a final concentration of 0.5 mg/ml and incubated for 4 h before the end of the culture. The quantity of formazan is measured at 570 nm with a microplate reader (Molecular Devices, Sunnyvale, CA, USA) and the cell viability was calculated.

Another data set has as its system IL-6. In words: LPS-induced IL-6 production in RAW264.7 macrophages (ELISA). The format is cell-based, mouse. The settings on record: for IC50: Mus musculus, RAW264.7 macrophages, LPS 5 μg/mL, 24 h; for potency of inhibitory activity on IL-6 relative to Dexamethasone: compared with Dexamethasone. On the procedure: as §1, §2
A general note: An ELISA detects its analyte on a solid surface through an enzyme-linked reagent.

A further data set relates to IL-1β. In words: LPS-induced IL-1β production in RAW264.7 macrophages (ELISA). As to conditions: Mus musculus, LPS 5 μg/mL, 24 h. Type of data set: cell-based. On the procedure: as §1, §2
For the next data set, the system named is RAW264.7 cells. In words: Cell viability assay (MTT) in RAW264.7 cells. As to conditions: at the indicated concentrations, compared to Dexamethasone. Type of data set: cell-based, mouse. As for the experimental part:
as §1, §3

The next data set relates to NF-κB signaling pathway. In words: Western blotting of LPS-induced NF-κB signaling pathway activation in RAW264.7 cells. The format is cell-based, mouse. As to conditions: Western blot. On the procedure: as §1
RAW264.7 cells (6 × 10^5/well) were seeded into 24-well plates and treated with DMEM media only or 5 μg/mL of LPS or with indicated concentrations of compounds for 24 h. Cells were lysed in sodium dodecyl sulfate (SDS) sample buffer containing protease inhibitor cocktail (Roche Life Science, Mannheim, Germany). The resulted proteins were resolved by SDS-polyacrylamide gel electrophoresis and then subjected to the following antibodies: anti-mouse IKK-α, anti-mouse phospho-IKK-α, anti-mouse IκB-α, anti-mouse NF-κB p65, anti-mouse phospho-NF-κB p65 antibodies (Cell Signaling Technology, Beverly, MA), and HRP-conjugated mouse anti-GAPDH (Kangcheng, Shanghai, China). Signals were detected with an HRP-conjugated anti-rabbit IgG (Bio-Rad, Richmond, CA, USA) using an ECL system (Amersham Biosciences, Buckinghamshire, UK). The uncropped and unprocessed scans of indicated blots were supplied as Supplementary Figure 99 in the Supplementary Information.
(A western blot detects proteins with antibodies after separation by electrophoresis.)

For the molecule `Cc1oc2cc1C(=O)NCCCCCCCCCCCC(=O)N[C@@H](Cc1ccccc1)C(=O)Nc1ccc(cc1)C(C)(C)/C=C\2C(C)(C)C` [6a], the IC50 with TNF-α was greater than 250 µM; with IL-6, 53.6 µM; in the data set on IL-1β, 12.8 µM. Also, the CC50 at 24 h in data set [1] was 152 µM.
For the molecule `Cc1oc2cc1C(=O)NCCCCCCCCCCCC(=O)N[C@@H](C)C(=O)Nc1ccc(cc1)C(C)(C)/C=C\2C(C)(C)C` [6b], the IC50 in the data set on TNF-α was found to be 2.15 µM; with IL-6, 7.28 µM; in the data set with IL-1β it was 3.4 µM. Also, in data set [1], the CC50 at 24 h is 39.7 µM.
`Cc1oc2cc1C(=O)NCCCCCCCCCCCC(=O)N[C@@H](C(C)C)C(=O)Nc1ccc(cc1)C(C)(C)/C=C\2C(C)(C)C` [6c]: the IC50 in the data set on TNF-α turned out to be 11.5 µM; in the data set with IL-6, 10.5 µM; in the data set on IL-1β, 4.38 µM. Besides, the CC50 at 24 h in data set [1] came to 154 µM.
The corresponding values for `Cc1oc2cc1C(=O)NCCCCCCCCCCCC(=O)N1CCC[C@H]1C(=O)Nc1ccc(cc1)C(C)(C)/C=C\2C(C)(C)C` [6d] are 107 µM, 196 µM, 17.6 µM and 27.7 µM.
Taken in the same sequence, the figures for `Cc1oc2cc1C(=O)NCCCCCCCCCCCC(=O)N[C@@H](C(C)C)C(=O)N[C@@H](Cc1ccccc1)C(=O)Nc1ccc(cc1)C(C)(C)/C=C\2C(C)(C)C` [6e] were greater than 250 µM, 80.8 µM, 3.05 µM and greater than 250 µM.
The corresponding values for `CSCC[C@@H]1NC(=O)CCCCCCCCCCCNC(=O)c2cc(oc2C)/C(C(C)(C)C)=C\C(C)(C)c2ccc(cc2)NC(=O)[C@H](Cc2ccccc2)NC1=O` [6f] are 10 µM, 29.5 µM, 8.61 µM and 214 µM.
As for `Cc1oc2cc1C(=O)NCCCCCCCCCCCC(=O)Nc1ccc(cc1)C(C)(C)/C=C\2C(C)(C)C` [6g], in the data set with TNF-α, the IC50 is 0.45 µM. The CC50 at 24 h in data set [1] is greater than 250 µM. Further, in the data set with RAW264.7 cells, the “cytotoxicity (in words)” value is “did not show obvious cytotoxicity”. Moreover, in the data set with NF-κB signaling pathway, the “degradation of IκB-α” value is given as “abrogate”, the “phosphorylation of IKK-α” value was “abrogate” and the “phosphorylation of NF-κB” value was “suppressed by 6g in a concentration-dependent manner”. In the data set with IL-6, half-maximal inhibition (IC50) was put at 1.59 µM and the “potency of inhibitory activity on IL-6 relative to Dexamethasone” value is given as “approximately ten times more potent”. The IC50 in the data set with IL-1β came out at 0.59 µM.
As for `Cc1oc2cc1C(=O)N[C@@H](C(C)C)C(=O)NCCCCCCCCCCCC(=O)Nc1ccc(cc1)C(C)(C)/C=C\2C(C)(C)C` [6h], the IC50 with TNF-α is 56.4 µM; in the data set with IL-6 it was 0.95 µM; with IL-1β it was 0.0041 µM. Further, in data set [1], the CC50 at 24 h stood at 56.4 µM. For the same molecule, the “cytotoxicity (in words)” value in the data set with RAW264.7 cells is listed as “did not show obvious cytotoxicity”. Further, the “potency of inhibitory activity on IL-6 relative to Dexamethasone” value with IL-6 is listed as “approximately ten times more potent”.
